Laboratory results: PMC11763059, “GENI as an AMPK Activator Binds α and γ Subunits and Improves the Memory Dysfunction of Alzheimer’s Disease Mouse Models via Autophagy and Neuroprotection” (Antioxidants, 2025)

Tests used:
[1] = target: T1, AMPK-s4 (γ subunit- K148A) (Rattus norvegicus, UniProt P54645+P80385, K148A); test: SPR analysis, AMPK mutant s4; type: binding
T1 construct: His (N); made in house
Procedure: Mammalian AMPK subunits (His-α1, β1, and γ1) were cloned into a pET-3d vector, and protein expression and purification were similar to the literature.
SPR analysis was performed with a Biacore T200 instrument (GE Healthcare). Firstly, the purred His-tagged AMPK containing α1β1γ1 protein was captured onto an activated carboxymethylated 5 (CM5) chip using amine coupling to levels ranging from 4000 RU to 6000 RU. Secondly, GENI was dissolved in PBS-P buffer solution (0.05% (v/v) Tween 20 and PBS), and the concentration of GENI was 64 μM. Thirdly, the solution of GENI was diluted to 32 μM, 16 μM, 8 μM, 4 μM, 2 μM, 1 μM and 0.5 μM with PBS-P buffer solution. The sample was filtered by pumping through a […] membrane. A gradient concentration of GENI was injected at a flow rate of 30 μL/min in a running buffer (0.05% (v/v) Tween 20 and PBS). The data were analyzed with Biacore evaluation software (T200 version 2.0) and fitted to the 1:1 Langmuir binding model, and the kinetic parameters were derived.
The non-covalent interaction between drugs and proteins is an important way to exert drug efficacy, and its mode of action and binding affinity usually determine the utilization and biological activity of drugs. AMPK is a heterotrimer complex consisting of an α subunit containing the kinase domain and two regulatory subunits (β- and γ-). […]

BV-2 microglia = test: BV-2 microglial activity assay (Iba1 staining); type: cell-based, murine; conditions: GENI 1, 3, and 10 μM, LPS 1 μg/mL
Procedure: BV-2 cells (2.5 × 10^4) were seeded in 24-well plates. […] We then removed the medium, washed the cells three times with PBS, and fixed the cells with 4% paraformaldehyde (500 μL/well) for 20 min at room temperature. We washed the cells three times with PBS and added Quick Block^TM immunostaining blocking solution (500 μL/well) to block for 60 min. After removing the blocking solution, we added 200 μL of the primary antibody (Anti-Iba1 rabbit monoclonal antibody, 1:1000, abcam178847) to each well and incubated the samples overnight at 4 °C. The next day, the supernatant was discarded, washed three times with PBS, and incubated with the secondary antibody Cart anti-rabbit IgG (1:1000) at room temperature for 1 h. Nuclei were stained with DAPI (250 μL/well) for 5 min, and the fluorescence was observed under a fluorescent inverted microscope (Olympus IX53, Tokyo, Japan).

D-gal-induced AD mice = test: Behaviour tests in D-gal-induced AD mice; type: in vivo
Procedure: Each group comprised 10 mice. […] Dosing lasted for 10 weeks. […] The mice were sacrificed after 10 weeks of administration.
The Y-maze is mainly used to study the spatial working memory ability of rodents. The Y-maze consisted of three equal-length arms (50 cm × 18 cm × 35 cm), and the angle between each two arms was 120 degrees. The mice were placed at the end of any arm of the Y-maze and allowed to explore freely for 8 min. The behavioral changes including the total number of entries and alternation (successively entering all three arms of the Y-maze once in turn) were recorded. Percentage altercation = alternation/(entries-2) × 100%. The Y-maze could effectively reflect the ability of animals to recognize and remember novel environments.
NOR was used to detect memory in rodents. We prepared a 40 × 40 × 40 cm square box, camera equipment, and behavioral analysis software. We chose three objects A, B, and C, where objects A and B were exactly the same, and object C was very different from objects A and B. After the start of the experiment, the mice were allowed to acclimate freely in the experimental apparatus for 10 min. Objects A and B were placed into the box, and the mice were allowed to explore for 5 min. We then recorded the exploration time and times. After 1 h, A and C or B and C were placed into the box. After letting the mice explore for 5 min, we recorded the exploration time of the original object and the new object. Discrimination index = exploration time of new objects/total exploration time × 100%.
The MWM installation consisted of a circular pool (120 cm in diameter and 50 cm in height), camera equipment, and a computer analysis system. In the first stage, the platform position was fixed, and mice were placed into the pool from any three of the four origins on the pool facing away from the pool wall. The time when it took for the mouse to find the platform within 120 s, called escape latency, was recorded. The training period lasted 4 days. The escape latency of the mice was recorded daily, and the average value was used as an index to evaluate the ability of learning and memory. On the 5th day, the platform was evacuated by the experimenter. The mice were placed against the platform into the water from any water entry point, and they were allowed to swim freely for 60 s. We then recorded the number of times that they crossed the platform.
The rationale for the three-box social test is based on the fact that mice are naturally gregarious and tend to explore new objects. The experimental device consisted of three rectangular boxes, each with a size of 19×45 cm, with a channel in the middle to allow the three boxes to connect with one another. Two metal cages of the same size were placed in the centre of the left and right boxes. Firstly, the mice were placed in the box for 10 min. Secondly, stranger 1 mouse was randomly placed in the metal cage in the left or right box, and the metal cage in the other box was empty. The experimental mice were placed in the box for 10 min. The number and duration of direct contact between the experimental mice and stranger 1 were recorded. Thirdly, strange 2 mice were placed in the empty metal cage of the second stage experiment and then recorded for 10 min. We observed the time and number of contacts between stranger 1 and stranger 2 and calculated the social preference and sociability index.

[2] = GENI administration group compared with the D-gal model group

T1 sequence (P54645 13-559 limits assumed): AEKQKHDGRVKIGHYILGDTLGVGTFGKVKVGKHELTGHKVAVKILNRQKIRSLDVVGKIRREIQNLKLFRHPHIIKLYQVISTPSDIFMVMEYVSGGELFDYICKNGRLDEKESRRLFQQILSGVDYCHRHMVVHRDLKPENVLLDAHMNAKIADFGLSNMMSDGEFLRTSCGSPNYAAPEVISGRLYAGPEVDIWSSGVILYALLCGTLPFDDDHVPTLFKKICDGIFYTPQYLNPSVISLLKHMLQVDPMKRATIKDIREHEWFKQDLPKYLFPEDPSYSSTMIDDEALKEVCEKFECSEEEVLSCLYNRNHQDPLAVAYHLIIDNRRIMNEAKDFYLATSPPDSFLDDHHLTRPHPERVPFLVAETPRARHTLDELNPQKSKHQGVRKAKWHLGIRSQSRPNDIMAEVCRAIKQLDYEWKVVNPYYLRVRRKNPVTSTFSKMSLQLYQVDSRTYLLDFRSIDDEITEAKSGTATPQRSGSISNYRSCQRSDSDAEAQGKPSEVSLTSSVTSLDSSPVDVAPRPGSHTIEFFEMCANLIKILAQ
T1 sequence (P80386 whole entry partner): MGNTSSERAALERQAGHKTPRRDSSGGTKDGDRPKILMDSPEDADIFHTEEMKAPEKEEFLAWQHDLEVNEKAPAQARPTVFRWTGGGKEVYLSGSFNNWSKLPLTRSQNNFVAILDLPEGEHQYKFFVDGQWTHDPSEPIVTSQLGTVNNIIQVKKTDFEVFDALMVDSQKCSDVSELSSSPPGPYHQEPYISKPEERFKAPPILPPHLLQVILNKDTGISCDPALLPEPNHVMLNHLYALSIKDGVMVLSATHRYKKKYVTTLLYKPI
T1 sequence (P80385 whole entry K148A): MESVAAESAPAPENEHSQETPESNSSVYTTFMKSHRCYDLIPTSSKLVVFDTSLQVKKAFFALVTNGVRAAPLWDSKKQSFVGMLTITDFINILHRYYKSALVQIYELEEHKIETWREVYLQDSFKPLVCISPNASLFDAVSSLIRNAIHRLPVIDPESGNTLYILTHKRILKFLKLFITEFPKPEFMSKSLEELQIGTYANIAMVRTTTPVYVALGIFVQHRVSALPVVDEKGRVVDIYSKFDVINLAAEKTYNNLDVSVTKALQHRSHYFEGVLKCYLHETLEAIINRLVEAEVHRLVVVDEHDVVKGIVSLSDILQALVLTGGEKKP

## CC(C)CCOC(=O)C1=CO[C@@H](O[C@@H]2O[C@H](CO)[C@@H](O)[C@H](O)[C@H]2O)C2C(CO)=CCC12 (stereo partly drawn) [GENI, Geniposidic 4-isoamyl ester]
[1]; SPR, association rate, read-out: Ka
  kon: 4130 M⁻¹ s⁻¹
[1]; point mutation of K148
  dose-dependent relationship in SPR: dose-dependent relationship was lost
BV-2 microglia
  LPS-induced activation in BV-2 microglia: inhibiting
D-gal-induced AD mice; GENI 25 and 50 mg/kg i.g., versus D-gal group
  rate of alternating arms in the Y maze test: significantly increase
D-gal-induced AD mice; [2]
  escape latency in the Morris water maze test: significantly reduced
  number of crossing platforms in the Morris water maze test: significantly increased
D-gal-induced AD mice; GENI i.g., versus D-gal group
  cognitive index and object recognition index in the NOR experiment: significantly increased
D-gal-induced AD mice; GENI-administered groups
  sociability and social preferences (three-box social experiment): significant social skills and social preferences
D-gal-induced AD mice; comparable to the effect of DON at a dose of 3 mg/kg
  optimal dose for anti-AD effect: 25 mg/kg
